Experimental data: ChEMBL document CHEMBL3044771, “Synthesis, characterization, and in vitro anti-Mycobacterium tuberculosis activity of terpene Schiff bases” (2013)
Values after ≈ are worked out from the molar mass of the structure shown.

Columns and labels:
Type in all cases: functional
[1] = test system: Mycolicibacterium smegmatis; test: Antitubercular activity against Mycobacterium smegmatis ATCC 35797 assessed as growth inhibition after 48 hr by NCCLS agar dilution method; conditions: ATCC 35797, 48 h
Mycobacteroides chelonae = test: Antitubercular activity against Mycobacterium chelonae ATCC 35751 assessed as growth inhibition after 48 hr by NCCLS agar dilution method; conditions: ATCC 35751, 48 h
Mycobacterium xenopi = test: Antitubercular activity against Mycobacterium xenopi ATCC 14470 assessed as growth inhibition after 48 hr by NCCLS agar dilution method; conditions: ATCC 14470, 48 h
[2] = test system: Mycobacterium intracellulare; test: Antitubercular activity against Mycobacterium intracellulare ATCC 35743 assessed as growth inhibition after 48 hr by NCCLS agar dilution method; conditions: ATCC 35743, 48 h

Row | Structure (SMILES) | MIC [1] [µg/mL] | MIC (Mycobacteroides chelonae) [µg/mL] | MIC (Mycobacterium xenopi) [µg/mL] | MIC [2] [µg/mL]
1 | CC12CCC(C/C1=N/NC(=O)c1ccncc1)C2(C)C (stereo not drawn) | 50 (≈ 184 µM) | 50 (≈ 184 µM) | 50 (≈ 184 µM) | 50 (≈ 184 µM)
2 | C=C(C)C1CC=C(C)/C(=N/NC(=O)c2ccncc2)C1 (stereo not drawn) | 12 (≈ 44.6 µM) | 12 (≈ 44.6 µM) | 12 (≈ 44.6 µM) | 12 (≈ 44.6 µM)
3 | CCn1cc(C(=O)N/N=C\C=C(/C)CCC=C(C)C)c(=O)c2ccc(C)nc21 | > 100 | > 100 | > 100 | > 100
4 | CCn1cc(C(=O)N/N=C2\CC3CCC2(C)C3(C)C)c(=O)c2ccc(C)nc21 (stereo not drawn) | 50 (≈ 131 µM) | 50 (≈ 131 µM) | 50 (≈ 131 µM) | 50 (≈ 131 µM)
5 | C=C(C)C1CC=C(C)/C(=N\NC(=O)c2cn(CC)c3nc(C)ccc3c2=O)C1 (stereo not drawn) | > 100 | > 100 | > 100 | > 100
6 | CC(C)=CCC/C(C)=C\C=N/NC(=O)c1ccccc1Nc1cccc(C)c1C | > 100 | > 100 | > 100 | > 100
7 | Cc1cccc(Nc2ccccc2C(=O)N/N=C2\CC3CCC2(C)C3(C)C)c1C (stereo not drawn) | > 100 | > 100 | > 100 | > 100
8 | C=C(C)C1CC=C(C)/C(=N/NC(=O)c2ccccc2Nc2cccc(C)c2C)C1 (stereo not drawn) | > 100 | > 100 | > 100 | > 100
9 | CC12CCC(C/C1=N\NC(=O)c1ccccc1Nc1cccc(C(F)(F)F)c1)C2(C)C (stereo not drawn) | > 100 | > 100 | > 100 | > 100
10 | C=C(C)C1CC=C(C)/C(=N/NC(=O)c2ccccc2Nc2cccc(C(F)(F)F)c2)C1 (stereo not drawn) | > 100 | > 100 | > 100 | > 100
11 | CC(C)=CCC/C(C)=C/C=N/NC(=O)c1ccncc1 | > 100 | > 100 | > 100 | > 100
12 | NNC(=O)c1ccncc1 [ISONIAZID] | 12.5 (≈ 91.1 µM) | 12.5 (≈ 91.1 µM) | 12.5 (≈ 91.1 µM) | 12.5 (≈ 91.1 µM)
